Laboratory results as given in patent US4623662A, “Antiatherosclerotic ureas and thioureas” (American Cyanamid Company, priority 1985, dated 1986).
Read-outs that look alike come from different tables or passages of the source.

Biological target: T1, fatty acyl CoA: cholesterol acyl transferase (ACAT) (Rattus norvegicus, UniProt O70536)
T1 construct: The supernatant, containing the microsomal fraction, served as the source of the cholesterol-esterifying enzyme; from tissue; host or cells: rat adrenals, supernatant of 1,000 x g centrifugation containing the microsomal fraction
T1 sequence (O70536 1-545): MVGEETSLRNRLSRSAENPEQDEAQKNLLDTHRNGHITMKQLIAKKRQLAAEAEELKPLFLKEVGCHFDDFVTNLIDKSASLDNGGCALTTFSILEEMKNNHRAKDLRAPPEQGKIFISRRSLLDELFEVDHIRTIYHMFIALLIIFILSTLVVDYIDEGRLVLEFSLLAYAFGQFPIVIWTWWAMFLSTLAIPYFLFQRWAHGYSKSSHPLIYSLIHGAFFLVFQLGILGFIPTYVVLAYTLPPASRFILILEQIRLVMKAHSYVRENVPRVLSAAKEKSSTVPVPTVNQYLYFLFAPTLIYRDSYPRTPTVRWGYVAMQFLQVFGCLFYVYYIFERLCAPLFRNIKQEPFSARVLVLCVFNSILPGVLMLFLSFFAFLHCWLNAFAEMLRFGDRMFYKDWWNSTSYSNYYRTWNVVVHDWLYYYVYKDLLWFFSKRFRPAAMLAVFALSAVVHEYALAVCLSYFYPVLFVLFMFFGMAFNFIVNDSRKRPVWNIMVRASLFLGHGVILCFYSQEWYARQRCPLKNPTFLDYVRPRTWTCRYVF
Test: Inhibition of fatty acyl CoA:cholesterol acyl transferase (ACAT), rat adrenal enzyme
Format: biochemical
Description: The compounds of the present invention were assayed for two types of biological activity related to their potential use as antiatherosclerotic agents. Compounds were tested in vitro for the ability to inhibit the enzyme fatty acyl CoA: cholesterol acyl transferase (ACAT) and in vivo for serum hypolipidemic activity as meausred by the ability to inhibit lipid absorption in rats.
The compounds were tested for their ability to inhibit ACAT according to the following procedure: rat adrenals were homogenized in 0.2M monobasic potassium phosphate buffer, pH 7.4, and centrifuged at 1,000 times gravity for 15 minutes at 5° C. The supernatant, containing the microsomal fraction, served as the source of the cholesterol-esterifying enzyme, fatty acyl CoA:cholesterol acyl transferase (ACAT). A mixture comprising 50 parts of adrenal supernatant, 10 parts of bovine serum albumin (50 mg/ml), 3 parts of test compound (final concentration 5.2 μg/ml), and 500 parts of buffer was preincubated at 37° C. for 10 minutes. After treatment with 20 parts of oleoyl CoA (^14 C-0.4 μCi), the mixture was incubated at 37° C. for 10 minutes. A control mixture, omitting the test compound, was prepared and treated in the same manner. The lipids from the incubation mixture was extracted into an organic solvent and separated by thin-layer chromatography. The cholesteryl ester fraction was counted in a scintillation counter. This procedure is a modification of that described by Hashimoto, et al., Life Scie., 12 (Part II), 1-12 (1973).
Compounds which produced statistically significant inhibition of the ACAT enzyme are considered to be active.
In addition to the above described test and the results given in terms of percent inhibition, various compounds of this invention were tested by the same procedure at several concentrations. The results of this test are given in Table II in terms of IC50 (μM), that concentration which produced 50% inhibition of the ACAT enzyme.

[1] = rat adrenal ACAT, final concentration 5.2 μg/ml, read-out: % Inhibition

inhibition at 5.2 µg/mL [1] [%] | Molecule | also measured
96.1 | CCCCCCCCCCN(Cc1ccccc1)C(=O)Nc1ccc(C)cc1C [1-(n-Decyl)-1-benzyl-3-(2,4-dimethylphenyl)urea] | –
93.8 | CCCCCCc1ccc(CN(CCCC)C(=O)Nc2ccc(C)cc2C)cc1 [1-(n-Butyl)-1-[4-(n-hexyl)benzyl]-3-(2,4-dimethylphenyl)urea] | –
72.9 | CCCCN(Cc1ccccc1)C(=O)Nc1cc(Cl)c(NC(=O)CCl)c(Cl)c1 [1-(n-Butyl)-1-(benzyl)-3-[4-(chloroacetamido)-3,5-dichlorophenyl]urea] | –
74.5 | CCCCN(Cc1c(Cl)cccc1Cl)C(=O)Nc1ccc(C)cc1C [1-( -n-Butyl)-1-(2,6-dichlorobenzyl)-3-(2,4-dimethylphenyl)urea] | –
97.4 | CCCCN(CC(C)(c1ccccc1)c1ccccc1)C(=O)Nc1ccc(C)cc1C [1-(n-Butyl)-1-(2-methyl-2,2-diphenyl)ethyl-3-(2,4-dimethylphenyl)urea] | –
87.8 | Cc1ccc(NC(=O)N(CCC(c2ccccc2)c2ccccc2)c2ccc3c(c2)OCO3)c(C)c1 [1-(3,4-Methylenedioxyphenyl)-1-(3,3-diphenylpropyl)-3-(2,4-dimethylphenyl)urea] | –
71 | CCCCN(Cc1ccccc1)C(=O)Nc1cccc(Cl)c1O [1-(n-Butyl)-1-benzyl-3-(3-chloro-2-hydroxyphenyl)urea] | –
98.3 | CCCCN(CCc1cccc(OC)c1)C(=O)Nc1ccc(C)cc1C [1-(n-Butyl)-1-[2-(3-methoxyphenyl)ethyl]-3-(2,4-dimethylphenyl)urea] | –
88.4 | CCCCCCCN(CCc1ccccc1)C(=O)Nc1cccc(C(F)(F)F)c1 [1-(n-Heptyl)-1-(2-phenylethyl)-3-(3-trifluoromethylphenyl)urea] | –
46.5 | CCCCCCCN(Cc1ccc(CCCC)cc1)C(=O)Nc1cc(Cl)c(Cl)cc1Cl [1-(n-Heptyl)-1-(4-n-butylbenzyl)-3-(2,4,5-trichlorophenyl)urea] | –
56.1 | Cc1cccc(CN(CCc2ccccc2Cl)C(=O)Nc2ccc(C)cc2C)c1 [1-[2-(2-Chlorophenyl)ethyl]-1-(3-methylbenzyl)-3-(2,4-dimethylphenyl)urea] | –
91 | CCCCCOc1ccc(CN(Cc2ccc(CCCCC)cc2)C(=O)Nc2ccc(Cl)cc2C)cc1 [1-(4-n-Pentylbenzyl)-1-(4-n-pentyloxybenzyl)-3-(2-methyl-4-chlorophenyl)urea] | –
90.7 | CCCCN(Cc1ccccc1)C(=O)Nc1cc(Cl)cc(Cl)c1 [1-Benzyl-1-( -n-butyl)-3-(3,5-dichlorophenyl)urea] | –
95.9 | CCCCN(Cc1ccccc1)C(=O)Nc1ccc(Cl)c(Cl)c1 [1-Benzyl-1-( -n-butyl)-3-(3,4-dichlorophenyl)urea] | –
92.7 | CCCCN(Cc1ccccc1)C(=O)Nc1cc(C)ccc1C [1-Benzyl-1-( -n-butyl)-3-(2,5-dimethylphenyl)urea] | –
87.1 | CCCCN(Cc1ccccc1)C(=O)Nc1ccc(C)c(C)c1 [1-Benzyl-1-( -n-butyl)-3-(3,4-dimethylphenyl)urea] | –
29.2 | Cc1ccc(NC(=O)N(CCc2ccccc2C)Cc2ccc(Br)cc2)c(C)c1 [1-[2-(2-Methylphenyl)ethyl]-1-(4-bromobenzyl)-3-(2,4-dimethylphenyl)urea] | –
– | CCCCCCCN(Cc1ccc(CCCC)cc1)C(=O)Nc1c(F)cc(F)cc1F [1-[(4-butylphenyl)methyl]-1-(n-heptyl)-3-[2,4,6-trifluorophenyl]urea] | inhibition at 5.2 µg/mL: 90%
– | 1-[(4-Butylphenyl)methyl]-1-[6-[(methylsulfonyl)oxy]-hexyl]-3-[(2,4,5-trimethylphenyl)methyl]urea | % Inhibition (rat adrenal ACAT, final concentration 5.2 μg/ml): 90.0%

inhibition at 5.2 µg/mL [1] [%] | Molecule | also measured
74 | O=C(Nc1cccc(C(F)(F)F)c1)N(Cc1ccccc1)C(Cc1ccccc1)c1ccc(OCc2ccccc2)cc1 (stereo not shown) [1-Benzyl-1-[2-phenyl-1-(4-benzyloxyphenyl)ethyl]-3-(3-trifluoromethylphenyl)urea] | –
93.7 | Cc1cc(C)c(NC(=O)N(Cc2ccccc2)C(Cc2ccccc2)c2ccc(OCc3ccccc3)cc2)cc1C (stereo not shown) [1-Benzyl-1-[2-phenyl-1-(4-benzyloxyphenyl)ethyl]-3-(2,4,5-trimethylphenyl)urea] | –
78.8 | CCCCN(Cc1ccccc1)C(=O)Nc1ccccc1C [1-Benzyl-1-( -n-butyl)-3-(2-methylphenyl)urea] | –
96.1 | CCCCN(CCc1ccc(F)cc1)C(=O)Nc1ccc(C)cc1C [1-(n-Butyl)-1-[2-(4-fluorophenyl)ethyl]-3-(2,4-dimethylphenyl)urea] | –
36.4 | CCCCN(CCCc1ccc(OC)c(OC)c1)C(=O)Nc1ccc(C)cc1C [1-(n-Butyl)-1-[3-(3,4-dimethoxyphenyl)propyl]-3-(2,4-dimethylphenyl)urea] | –
94.6 | CCCCN(Cc1ccc(Cl)cc1)C(=O)Nc1ccc(C)cc1C [1-(n-Butyl)-1-(4-chlorobenzyl)-3-(2,4-dimethylphenyl)urea] | –
– | CC(C)(C)CCN(Cc1ccc(Cl)cc1)C(=O)Nc1cccc(C(F)(F)F)c1 [1-(3,3-Dimethylbutyl)-1-(4-chlorobenzyl)-3-(3-trifluoromethylphenyl)urea] | inhibition at 5.2 µg/mL: 90%
92.8 | Cc1ccc(NC(=O)N(CCc2ccccc2Cl)Cc2ccc(C)c(C)c2)c(C)c1 [1-[2-(2-Chlorophenyl)ethyl]-1-(3,4-dimethylbenzyl)-3-(2,4-dimethylphenyl)urea] | –
83 | O=C(Nc1ccc(Cl)cc1C(F)(F)F)N(Cc1ccc(Cl)cc1)Cc1cccc2ccccc12 [1-(4-Chlorobenzyl)-1-(1-naphthylmethyl)-3-(2-trifluoromethyl-4-chlorophenyl)urea] | –
92 | O=C(Nc1ccc(Cl)cc1C(F)(F)F)N(Cc1ccccc1)C(Cc1ccccc1)c1ccc(OCc2ccccc2)cc1 (stereo not shown) [1-Benzyl-1-[2-phenyl-1-(4-benzyloxyphenyl)ethyl]-3-(2-trifluoromethyl-4-chlorophenyl)urea] | –
– | CC(C)(C)CCN(Cc1ccccc1)C(=O)Nc1c(F)cc(F)cc1F [1-Benzyl-1-[3,3-dimethylbutyl]-3-[2,4,6-trifluorophenyl]urea] | inhibition at 5.2 µg/mL: 90%
86.4 | COc1cccc(C(Cc2ccccc2)N(Cc2ccccc2)C(=O)Nc2ccc(C)cc2C)c1 (stereo not shown) [1-Benzyl-1-[1-(3-methoxyphenyl)-2-phenylethyl]-3-(2,4-dimethylphenyl)urea] | –
– | CCCCc1ccc(CN(CCCCCCOS(C)(=O)=O)C(=O)Nc2c(Cl)cc(Cl)cc2Cl)cc1 [1-[(4-Butylphenyl)methyl]-1-[6-(methylsulfonyloxy)-hexyl]-3-(2,4,6-trichlorophenyl)urea] | inhibition at 5.2 µg/mL: 90%
94.4 | CCCCc1ccc(CN(CCCC)C(=O)Nc2ccc(C)cc2C)cc1 [1-( -n-Butyl)-1-(4- -n-butylbenzyl)-3-(2,4-dimethylphenyl)urea] | –
93.3 | CCCCN(CCc1ccc(Cl)cc1)C(=O)Nc1ccc(C)cc1C [1-(n-Butyl)-1-[2-(4-chlorophenyl)ethyl]-3-(2,4-dimethylphenyl)urea] | –
96.4 | CCCCN(Cc1ccc(C(C)(C)C)cc1)C(=O)Nc1ccc(C)cc1C [1-(n-Butyl)-1-(4-tert-butylbenzyl)-3-(2,4-dimethylphenyl)urea] | –
80.6 | CCCCN(Cc1ccc(F)cc1)C(=O)Nc1ccc(C)cc1C [1-( -n-Butyl)-1-(4-fluorobenzyl)-3-(2,4-dimethylphenyl)urea] | –
82.4 | CCCCN(Cc1ccccc1)C(=S)Nc1ccccc1 [1-Benzyl-1-(n-butyl)-3-phenyl thiourea] | –
37 | CCCCN(Cc1ccccc1)C(=O)Nc1ccccc1[N+](=O)[O-] [1-(n-Butyl)-1-benzyl-3-(2-nitrophenyl)urea] | –

Molecule | inhibition at 5.2 µg/mL [1] [%] | also measured
CCCCCCCN(Cc1ccc(CCCC)cc1)C(=O)Nc1cccc(C(F)(F)F)c1 [1-(n-Heptyl)-1-(4-n-butylbenzyl)-3-(3-trifluoromethylphenyl)urea] | 85 | –
CCCCOc1ccc(CN(Cc2ccccc2)C(=O)Nc2cccc(C(F)(F)F)c2)cc1 [1-(n-Benzyl)-1-(4-n-butoxybenzyl)-3-(3-trifluoromethylphenyl)urea] | 87 | –
